Results published in the supplement of paper PMC10307832.

Assays:
Test in all cases: relative viability (nuclei count vs DMSO), 5 days (fraction); higher = more cells survive
[1] = compound: C#Cc1cccc(Nc2ncnc3cc(OC)c(OCCCCCCC(=O)NO)cc23)c1 [CUDC-101] + Nc1nc2[nH]cc(CCc3ccc(C(=O)N[C@@H](CCC(=O)O)C(=O)O)cc3)c2c(=O)[nH]1 [Pemetrexed] (partner 0.2 µM)
Outline: (§1)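 Lung cancer cell lines were seeded in 1536-well plates and dosed by pin tool the next day, with either a single drug or a fixed anchor-drug dose combined with five library-drug doses (not always all listed) spaced in √10 steps. Five days later, one step fixed the cells and stained their nuclei (final 0.05% Triton X-100, 1% formaldehyde, 1 ug/ml Hoechst), and nuclei were counted on 4× images. Relative viability is the nuclei count in treated wells divided by the count in vehicle wells, and each value is the median of duplicate plates.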

[2] = compound: C1=CC=C2C(=C1)N=C(S2)C(C#N)C3=NC(=NC=C3)NCCC4=CN=CC=C4 + Nc1nc2[nH]cc(CCc3ccc(C(=O)N[C@@H](CCC(=O)O)C(=O)O)cc3)c2c(=O)[nH]1 [Pemetrexed] (partner 0.2 µM)
Outline: as §1

[3] = compound: COc1cc2/c(=N/c3ccc(Br)cc3F)nc[nH]c2cc1OCC1CCN(C)CC1 [Vandetanib] + Cc1cc(Nc2cc(N3CCN(C)CC3)nc(Sc3ccc(NC(=O)C4CC4)cc3)n2)n[nH]1 [Tozasertib] (partner 0.1 µM)
Outline: as §1

[4] = compound: C1=CC=C2C(=C1)N=C(S2)C(C#N)C3=NC(=NC=C3)NCCC4=CN=CC=C4 + COc1cccc2cc(-c3nc([C@H]4CC[C@H](C(=O)O)CC4)n4ncnc(N)c34)[nH]c12 [OSI-027] (partner 0.5 µM)
Outline: as §1

| Cell Line | relative viability ([1]; first compound 0.01 µM) | relative viability ([1]; first compound 0.03162 µM) | relative viability ([1]; first compound 0.1 µM) | relative viability ([1]; first compound 0.3162 µM) | relative viability ([1]; first compound 1 µM) | relative viability ([2]; first compound 0.005 µM) | relative viability ([2]; first compound 0.01581 µM) | relative viability ([2]; first compound 0.05 µM) | relative viability ([2]; first compound 0.1581 µM) | relative viability ([2]; first compound 0.5 µM) | relative viability ([3]; first compound 0.02 µM) | relative viability ([3]; first compound 0.06325 µM) | relative viability ([3]; first compound 0.2 µM) | relative viability ([3]; first compound 0.6325 µM) | relative viability ([3]; first compound 2 µM) | relative viability ([4]; first compound 0.005 µM) | relative viability ([4]; first compound 0.01581 µM) | relative viability ([4]; first compound 0.05 µM) | relative viability ([4]; first compound 0.1581 µM) | relative viability ([4]; first compound 0.5 µM) |
| --- | --- | --- | --- | --- | --- | --- | --- | --- | --- | --- | --- | --- | --- | --- | --- | --- | --- | --- | --- | --- |
| NCI-H2023 | 0.255 | 0.298 | 0.201 | 0.233 | 0.183 | 0.211 | 0.26 | 0.205 | 0.264 | 0.213 | 0.436 | 0.31 | 0.217 | 0.298 | 0.337 | 0.285 | 0.418 | 0.31 | 0.355 | 0.275 |
| SW 1573 | 0.86 | 0.97 | 1.08 | 0.96 | 0.459 | 0.598 | 0.782 | 0.702 | 0.9 | 0.629 | 0.153 | 0.169 | 0.19 | 0.174 | 0.195 | 0.497 | 0.54 |  | 0.923 | 0.557 |
| SW 900 | 0.502 | 0.429 | 0.452 | 0.454 | 0.448 | 0.39 | 0.471 | 0.484 | 0.521 | 0.482 | 0.688 | 0.417 | 0.142 | 0.634 | 0.609 | 0.48 | 0.448 | 0.506 | 0.763 | 0.424 |
| NCI-H3122 | 0.19 | 0.21 | 0.191 | 0.209 | 0.22 | 0.187 | 0.197 | 0.206 | 0.214 | 0.194 | 0.522 | 0.36 | 0.372 | 0.399 | 0.4 | 0.671 | 0.923 | 0.895 | 1.34 | 0.819 |
| NCI-H661 | 0.956 | 0.903 | 0.953 | 0.968 | 0.631 | 0.84 | 0.916 | 0.85 | 0.904 | 0.876 | 0.345 | 0.345 | 0.315 | 0.364 | 0.368 | 0.638 | 0.687 | 0.689 | 0.748 | 0.682 |
| NCI-H441 | 0.248 | 0.261 | 0.263 | 0.274 | 0.228 | 0.317 | 0.279 | 0.238 | 0.276 | 0.265 | 0.744 | 0.668 | 0.283 | 0.853 | 0.768 |  | 0.669 | 0.556 | 0.719 | 0.487 |
| NCI-H596 | 0.466 | 0.538 | 0.482 | 0.644 | 0.472 | 0.464 | 0.517 | 0.485 | 0.58 | 0.495 | 0.922 | 0.706 | 0.688 | 1.03 | 0.898 | 0.541 | 0.682 | 0.595 | 0.826 | 0.674 |
| PC-3 [JPC-3] | 1.12 | 1.06 | 0.842 | 0.439 | 0.393 | 1.14 |  | 1.08 | 1.37 | 0.914 | 0.851 | 0.831 | 0.938 | 0.776 | 0.491 | 0.717 | 0.877 | 0.771 | 0.888 | 0.483 |
| NCI-H1993 | 0.586 | 0.616 | 0.637 | 0.606 | 0.517 | 0.53 | 0.627 | 0.555 | 0.728 | 0.542 | 0.639 | 0.601 | 0.481 | 0.561 | 0.521 | 0.579 | 0.555 | 0.637 | 0.626 | 0.585 |
| NCI-H1355 | 0.995 | 1.07 | 0.974 | 1.13 | 1.02 | 1.05 | 1.01 | 1.02 | 1.13 | 1.02 | 0.614 | 0.519 | 0.562 | 0.494 | 0.516 | 0.402 | 0.348 | 0.341 | 0.411 | 0.369 |
| NCI-H1648 | 0.826 | 0.744 | 0.805 | 0.741 | 0.535 |  | 0.682 |  | 0.673 | 0.652 | 0.515 | 0.492 | 0.569 | 0.657 | 0.318 | 0.238 | 0.239 | 0.289 | 0.26 | 0.28 |
| NCI-H23 | 0.757 | 0.744 | 0.604 | 0.755 | 0.514 |  | 0.511 | 0.701 | 0.779 | 0.641 | 0.307 | 0.41 | 0.144 | 0.382 | 0.327 | 0.566 | 0.552 | 0.474 | 0.601 | 0.614 |
| CAL-12T | 1.45 | 1.13 | 1.19 | 1.14 | 1.18 | 0.575 | 1.19 | 1.11 | 1.43 | 0.88 | 0.346 | 0.314 | 0.148 | 0.249 | 0.278 | 0.811 | 0.536 | 0.525 | 0.534 | 0.427 |
| HCC-44 | 0.629 | 0.657 | 0.71 | 0.645 | 0.693 | 0.723 | 0.677 | 0.668 | 0.648 | 0.675 | 0.924 | 0.851 | 1.01 | 1.05 | 0.949 | 0.421 |  | 0.566 | 0.531 | 0.47 |
| NCI-H1755 | 0.425 | 0.42 | 0.441 | 0.407 | 0.384 | 0.456 | 0.466 | 0.413 | 0.441 | 0.424 | 0.581 | 0.568 | 0.648 | 0.536 | 0.567 | 0.709 | 0.733 | 0.727 | 0.745 | 0.67 |
| SK-LU-1 | 0.948 | 1.12 | 0.948 | 0.965 | 0.947 | 0.81 | 1.06 | 0.956 | 1.12 | 0.89 | 0.36 | 0.361 | 0.133 | 0.292 | 0.317 | 0.278 | 0.374 | 0.349 | 0.345 | 0.297 |
